# Molecular target: T1, Human CaV2.2 channels (Homo sapiens, UniProt Q00975)
# T1 construct: expressed in transfected cells; Kir2.3 also stably co-expressed
# Assay: Fluorescence assay for CaV2.2 channels using potassium depolarization to induce channel opening (FLIPR, Fluo 4)
# Format: cell-based
# Details: 30 mM KCl assay buffer (inactivated channel state), HEK293 cells; for Activity Category: %-Inhib (CaV2.2) @3 μM @30 mM KCl: 3 μM test compound; for inhibition at 3 µM: HEK293, 3 μM test compound, read-out: Activity Category: %-Inhib (CaV2.2) @3 μM @30 mM KCl
# Source text: In the process, the Ca^2+ influx is quantified in the FLIPR assay with the aid of a Ca^2+-sensitive dye (type Fluo-4, Molecular Probes Europe BV, Leiden, the Netherlands) in a fluorescent imaging plate reader (FLIPR 3, Molecular Devices, Sunnyvale, USA), as described hereinafter.
# Human CaV2.2 channels were stably expressed in HEK293 cells together with alpha2-delta and beta subunits of voltage gated calcium channels. In addition, an inwardly rectifying potassium channel (Kir2.3) was stably expressed in these cells to augment control of the cell membrane potential by the concentration of extracellular potassium ions. Raise of the extracellular potassium concentration leads to depolarization of the membrane potential and thus regulates the voltage dependent state of CaV2.2 channels. For preparation, cells were seeded in black poly-D-lysine coated 96-well plates (Becton Dickinson, Biocoat 4640) in 100 μL medium [500 mL DMEM/F-12 plus Glutamax (Invitrogen 31331-093) plus 5.5 mL MEM NEAA 100× (Invitrogen 11140-035) plus 50 mL FBS decomplemented (Invitrogen 10270-106) plus 200 μg/mL Geneticin (Invitrogen 10131-027) plus 50 μg/mL Hygromycin B (Invitrogen 10687-010) plus 2 μg/mL Blasticidin (anti-bl5b Invivo-Gen) plus 0.2 μg/mL Puromycin (A 11138-03)] at a cell density of 30.000 cells per well. Plates were incubated at 37° C. (5% CO2) for 20 to 23 h. On the day of experiment medium was discarded and cells were loaded with Fluo 4 by addition of 100 μL of basic assay buffer (10 mM HEPES, 1 mM KCl, 149 mM NaCl, 0.8 mM CaCl2, 1.7 mM MgCl2, 10 mM Glucose, 0.1% BSA. pH 7.4) containing 2 μM Fluo 4 (Molecular Probes; F-14201), 0.01% pluronic acid (Molecular Probes; P-6866) and 2.5 mM probenecid (Molecular Probes; P36400). Cells were incubated in the dark at 25° C. for 60 min. Then dye containing buffer was discarded and 100 μL basic (1 mM KCl) or alternative (30 mM KCl) assay buffer was added. The alternative assay buffer contained altered concentrations of KCl (30 mM) and NaCl (120 mM) and was used in order to promote the inactivated channel state. After that 25 μL of basic or alternative assay buffer with or without test compound were added and cells were incubated again in the dark at 25° C. for 15 min. Fluorescence intensity was measured on a FLIPR 3 instrument (Molecular Devices Corp., Sunnyvale, Calif.) with excitation at 480 nm and emission at 535 nm. After continuously reading fluorescence for 30 sec, 50 μL of basic assay buffer containing 210 mM KCl (NaCl omitted) were added for depolarization. Peak fluorescent signal intensity was determined and the amplitude of the peak signal, normalized to base line, was used to measure channel inhibition by test compounds.
# T1 sequence (Q00975 whole entry): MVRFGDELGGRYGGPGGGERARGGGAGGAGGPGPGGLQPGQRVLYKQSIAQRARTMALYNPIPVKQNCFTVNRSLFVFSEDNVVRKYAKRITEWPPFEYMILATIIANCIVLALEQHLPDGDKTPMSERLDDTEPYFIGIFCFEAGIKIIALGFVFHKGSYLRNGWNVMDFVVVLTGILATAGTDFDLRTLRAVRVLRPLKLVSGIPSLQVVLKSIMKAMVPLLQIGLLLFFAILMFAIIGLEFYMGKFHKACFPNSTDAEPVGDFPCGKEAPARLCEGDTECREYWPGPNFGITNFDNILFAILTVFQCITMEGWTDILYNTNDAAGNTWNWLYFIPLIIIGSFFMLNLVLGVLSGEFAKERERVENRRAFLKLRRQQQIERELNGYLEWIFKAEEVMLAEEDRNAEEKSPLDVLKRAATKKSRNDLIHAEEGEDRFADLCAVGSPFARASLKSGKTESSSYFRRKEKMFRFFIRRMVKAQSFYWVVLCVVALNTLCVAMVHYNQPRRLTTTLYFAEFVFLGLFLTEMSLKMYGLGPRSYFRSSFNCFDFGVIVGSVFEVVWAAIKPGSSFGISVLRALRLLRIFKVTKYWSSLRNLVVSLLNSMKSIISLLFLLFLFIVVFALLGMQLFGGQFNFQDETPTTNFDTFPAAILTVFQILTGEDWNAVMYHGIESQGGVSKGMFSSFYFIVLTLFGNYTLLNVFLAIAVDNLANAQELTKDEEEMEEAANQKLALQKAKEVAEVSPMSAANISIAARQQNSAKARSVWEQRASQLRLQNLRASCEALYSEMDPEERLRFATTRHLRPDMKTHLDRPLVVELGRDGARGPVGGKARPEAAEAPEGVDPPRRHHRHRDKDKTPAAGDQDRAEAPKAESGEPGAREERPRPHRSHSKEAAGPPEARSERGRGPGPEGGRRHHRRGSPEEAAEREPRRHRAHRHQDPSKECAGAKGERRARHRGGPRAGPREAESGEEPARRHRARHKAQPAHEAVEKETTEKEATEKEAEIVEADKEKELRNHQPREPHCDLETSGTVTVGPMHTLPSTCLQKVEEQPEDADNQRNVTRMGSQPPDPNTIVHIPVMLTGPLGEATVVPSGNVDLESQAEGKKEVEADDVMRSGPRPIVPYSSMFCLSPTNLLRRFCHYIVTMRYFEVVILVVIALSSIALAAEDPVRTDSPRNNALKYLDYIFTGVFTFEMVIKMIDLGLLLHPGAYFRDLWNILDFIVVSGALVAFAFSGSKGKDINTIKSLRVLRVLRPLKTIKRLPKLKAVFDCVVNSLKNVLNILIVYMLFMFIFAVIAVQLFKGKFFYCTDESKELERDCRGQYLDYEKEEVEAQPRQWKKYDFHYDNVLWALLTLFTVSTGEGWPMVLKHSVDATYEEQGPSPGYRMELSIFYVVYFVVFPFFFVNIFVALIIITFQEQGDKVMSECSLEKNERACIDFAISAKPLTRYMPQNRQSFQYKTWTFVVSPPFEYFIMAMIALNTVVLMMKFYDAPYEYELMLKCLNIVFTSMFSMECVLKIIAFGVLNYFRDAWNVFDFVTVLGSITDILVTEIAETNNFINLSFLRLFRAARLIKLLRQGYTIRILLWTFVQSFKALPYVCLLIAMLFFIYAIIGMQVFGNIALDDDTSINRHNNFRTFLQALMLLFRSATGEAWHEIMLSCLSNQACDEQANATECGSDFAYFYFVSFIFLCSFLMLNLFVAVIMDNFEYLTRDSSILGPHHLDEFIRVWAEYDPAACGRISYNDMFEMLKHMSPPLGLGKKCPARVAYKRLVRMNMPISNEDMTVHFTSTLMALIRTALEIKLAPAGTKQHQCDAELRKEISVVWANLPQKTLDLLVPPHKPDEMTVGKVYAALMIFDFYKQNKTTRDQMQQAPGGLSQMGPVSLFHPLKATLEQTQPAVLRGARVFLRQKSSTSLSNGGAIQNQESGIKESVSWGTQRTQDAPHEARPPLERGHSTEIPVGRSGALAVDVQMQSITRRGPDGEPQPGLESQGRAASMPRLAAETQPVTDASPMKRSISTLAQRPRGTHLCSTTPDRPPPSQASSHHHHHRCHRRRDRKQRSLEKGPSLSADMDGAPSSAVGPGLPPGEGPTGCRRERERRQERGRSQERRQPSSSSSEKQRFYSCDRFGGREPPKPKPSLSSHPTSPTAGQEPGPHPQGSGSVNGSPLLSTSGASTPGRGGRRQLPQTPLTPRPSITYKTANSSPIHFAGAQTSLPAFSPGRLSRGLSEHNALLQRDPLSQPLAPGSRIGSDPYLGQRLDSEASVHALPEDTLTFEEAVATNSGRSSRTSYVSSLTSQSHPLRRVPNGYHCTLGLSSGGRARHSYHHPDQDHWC
Structure (SMILES),Activity Category: %-Inhib (CaV2.2) @3 μM @30 mM KCl,inhibition at 3 µM
"CC1(S(=O)(=O)c2cccc(C(F)(F)F)n2)CCOC(c2ccc(Cl)cc2)C1 (centres unmarked) [SC-106, 2-[[2-(4-Chlorophenyl)-4-methyl-tetrahydro-pyran-4-yl]sulfonyl]-6-(trifluoromethyl)-pyridine]",B (%-Inhibition >75% up to ≦95%),–
"CC1(S(=O)(=O)c2cccc(C(F)(F)F)c2)CCOC(c2ccc(F)c(C(N)=O)c2)C1 (single isomer, unassigned) [SC-139, 2-Fluoro-5-[4-methyl-4-[[3-(trifluoromethyl)phenyl]sulfonyl]-tetrahydro-pyran-2-yl]-benzamide]",B (%-Inhibition >75% up to ≦95%),–
"CC(C)c1cccc(S(=O)(=O)C2(C)CCOC(c3ccc(S(C)(=O)=O)cc3F)C2)c1 (centres unmarked) [SC-506, 2-(2-Fluoro-4-methylsulfonyl-phenyl)-4-[(3-isopropyl-phenyl)sulfonyl]-4-methyl-tetrahydro-pyran]",–,> 95%
"CC(C)c1cccc(S(=O)(=O)C2(C)CCOC(c3ccc(S(C)(=O)=O)cc3F)C2)c1 (racemic) [SC-505, 2-(2-Fluoro-4-methylsulfonyl-phenyl)-4-[(3-isopropyl-phenyl)sulfonyl]-4-methyl-tetrahydro-pyran]",–,> 95%
"CC1(S(=O)(=O)c2cccc(C(F)F)c2)CCOC(c2ccc(S(C)(=O)=O)cc2F)C1 (centres unmarked) [SC-510, 4-[[3-(Difluoro-methyl)-phenyl]sulfonyl]-2-(2-fluoro-4-methylsulfonyl-phenyl)-4-methyl-tetrahydro-pyran]",A (%-Inhibition >95%),–
"CC1(c2ccc(Cl)cc2)CC(S(=O)(=O)c2cccc(C(F)(F)F)c2)CCO1 (single isomer, unassigned) [SC-117, 2-(4-Chlorophenyl)-2-methyl-4-[[3-(trifluoromethyl)phenyl]sulfonyl]-tetrahydro-pyran]",–,> 95%
"CC1(S(=O)(=O)c2cccc(C(F)(F)F)c2)CCOC(c2ccc(S(C)(=O)=O)c(F)c2)C1 (centres unmarked) [SC-209, 2-(3-Fluoro-4-methylsulfonyl-phenyl)-4-methyl-4-[[3-(trifluoromethyl)phenyl]sulfonyl]-tetrahydro-pyran]",B (%-Inhibition >75% up to ≦95%),–
"CC1(S(=O)(=O)c2cccc(C(F)(F)F)c2)CCOC(c2ccc(F)c(Cl)c2)C1 (centres unmarked) [SC-228, 2-(3-Chloro-4-fluoro-phenyl)-4-methyl-4-[[3-(trifluoromethyl)phenyl]sulfonyl]-tetrahydro-pyran]",–,> 95%
"CC1(S(=O)(=O)c2cc(F)cc(C(F)(F)F)c2)CCOC(c2ccc(Cl)cc2)C1 (racemic) [SC-305, 2-(4-Chlorophenyl)-4-[[3-fluoro-5-(trifluoromethyl)-phenyl]sulfonyl]-4-methyl-tetrahydro-pyran]",–,75 to 95%
"CC1(S(=O)(=O)c2cc(F)cc(C(F)(F)F)c2)CCOC(c2ccc(S(C)(=O)=O)cc2F)C1 (racemic) [SC-515, 2-(2-Fluoro-4-methylsulfonyl-phenyl)-4-[[3-fluoro-5-(trifluoromethyl)-phenyl]sulfonyl]-4-methyl-tetrahydro-pyran]",–,> 95%
"CC1(S(=O)(=O)c2cccc(C(F)(F)F)c2)CCOC(c2ccc(S(C)(=O)=O)c(Cl)c2)C1 (centres unmarked) [SC-239, 2-(3-Chloro-4-methylsulfonyl-phenyl)-4-methyl-4-[[3-(trifluoromethyl)phenyl]sulfonyl]-tetrahydro-pyran]",–,> 95%
"C[S+]([O-])c1cc(Cl)ccc1C1CC(C)(S(=O)(=O)c2cccc(C(F)(F)F)c2)CCO1 (centres unmarked) [SC-291, 2-[4-Chloro-2-(methylsulfinyl)-phenyl]-4-methyl-4-[[3-(trifluoromethyl)phenyl]sulfonyl]-tetrahydro-pyran]",A (%-Inhibition >95%),–
"CC1(S(=O)(=O)c2cccc(C(F)(F)F)c2)CCOC(c2cc(S(C)(=O)=O)ccc2C2CC2)C1 (centres unmarked) [SC-278, 2-(2-Cyclopropyl-5-methylsulfonyl-phenyl)-4-methyl-4-[[3-(trifluoromethyl)phenyl]sulfonyl]-tetrahydro-pyran]",B (%-Inhibition >75% up to ≦95%),–
"CC1(S(=O)(=O)c2cccc(C(F)(F)F)c2)CCOC(COc2ccc(S(C)(=O)=O)c(F)c2)C1 (single isomer, unassigned) [SC-150, 2-[(3-Fluoro-4-methylsulfonyl-phenoxy)-methyl]-4-methyl-4-[[3-(trifluoromethyl)phenyl]sulfonyl]-tetrahydro-pyran]",–,75 to 95%
"CC1(S(=O)(=O)c2cccc(C(F)(F)F)c2)COC(c2ccc(Cl)cc2)C1 (centres unmarked) [SC-100, 2-(4-Chlorophenyl)-4-methyl-4-[[3-(trifluoromethyl)phenyl]sulfonyl]-tetrahydro-furan]",–,75 to 95%
"CCC1(S(=O)(=O)c2cccc(C(F)(F)F)c2)CCOC(C2CC2)C1 (centres unmarked) [SC-306, 2-Cyclopropyl-4-ethyl-4-[[3-(trifluoromethyl)phenyl]sulfonyl]-tetrahydro-pyran]",–,40 to 75%
"CC1(S(=O)(=O)c2cccc(OC(F)F)c2)CCOC(c2ccc(S(C)(=O)=O)cc2F)C1 (centres unmarked) [SC-516, 4-[[3-(Difluoro-methoxy)-phenyl]sulfonyl]-2-(2-fluoro-4-methylsulfonyl-phenyl)-4-methyl-tetrahydro-pyran]",C (%-Inhibition >40% up to ≦75%),–
"CC1(S(=O)(=O)c2cccc(C(F)(F)F)c2)CCOC(c2ccc(S(C)(=O)=O)c(C(F)(F)F)c2)C1 (centres unmarked) [SC-235, 4-Methyl-2-[4-methylsulfonyl-3-(trifluoromethyl)-phenyl]-4-[[3-(trifluoromethyl)phenyl]sulfonyl]-tetrahydro-pyran]",–,> 95%
"CC1(S(=O)(=O)c2cccc(C(F)(F)F)c2)CCOC(c2cc(S(C)(=O)=O)ccc2F)C1 (centres unmarked) [SC-294, 2-(2-Fluoro-5-methylsulfonyl-phenyl)-4-methyl-4-[[3-(trifluoromethyl)phenyl]sulfonyl]-tetrahydro-pyran]",–,75 to 95%
"COc1cc(C2CC(C)(S(=O)(=O)c3cccc(C(F)(F)F)c3)CCO2)ccc1Cl (centres unmarked) [SC-226, 2-(4-Chloro-3-methoxy-phenyl)-4-methyl-4-[[3-(trifluoromethyl)phenyl]sulfonyl]-tetrahydro-pyran]",–,> 95%
"CCc1ccc(C(F)(F)F)cc1S(=O)(=O)C1CCOC(c2ccc(Cl)cc2)C1 (centres unmarked) [SC-111, 2-(4-Chlorophenyl)-4-[[2-ethyl-5-(trifluoromethyl)-phenyl]sulfonyl]-tetrahydro-pyran]",C (%-Inhibition >40% up to ≦75%),–
"CC1(S(=O)(=O)c2cccc(C(F)(F)F)n2)CCOC(c2ccc(Cl)cc2)C1 (centres unmarked) [SC-104, 2-[[2-(4-Chlorophenyl)-4-methyl-tetrahydro-pyran-4-yl]sulfonyl]-6-(trifluoromethyl)-pyridine]",–,75 to 95%
"CC(C)Oc1cccc(S(=O)(=O)C2(C)CCOC(c3ccc(S(C)(=O)=O)cc3F)C2)c1 (centres unmarked) [SC-500, 2-(2-Fluoro-4-methylsulfonyl-phenyl)-4-[(3-isopropoxy-phenyl)sulfonyl]-4-methyl-tetrahydro-pyran]",–,75 to 95%
"CC1(S(=O)(=O)c2cccc(C(F)(F)F)c2)CCOC(c2cc(Cl)cc(S(C)(=O)=O)c2)C1 (centres unmarked) [SC-243, 2-(3-Chloro-5-methylsulfonyl-phenyl)-4-methyl-4-[[3-(trifluoromethyl)phenyl]sulfonyl]-tetrahydro-pyran]",–,> 95%
"CCc1nc2cc(C3CC(C)(S(=O)(=O)c4cccc(C(F)(F)F)c4)CCO3)ccc2o1 (centres unmarked) [SC-285, 2-Ethyl-5-[4-methyl-4-[[3-(trifluoromethyl)phenyl]sulfonyl]-tetrahydro-pyran-2-yl]-benzooxazole]",–,75 to 95%
"C[S+]([O-])c1ccc(C2CC(C)(S(=O)(=O)c3cccc(C(F)(F)F)c3)CCO2)c(F)c1 (centres unmarked) [SC-282, 2-[2-Fluoro-4-(methylsulfinyl)-phenyl]-4-methyl-4-[[3-(trifluoromethyl)phenyl]sulfonyl]-tetrahydro-pyran]",B (%-Inhibition >75% up to ≦95%),–
